The results in this text go back to patent US20250230138A1, “COMPOUNDS HAVING A T-STRUCTURE FORMED BY AT LEAST FOUR CYCLES FOR USE IN THE TREATMENT OF CANCER AND OTHER INDICATIONS” (TheRas, Inc., priority 2022, published 2025).

Read-outs that look alike come from different tables or passages of the source.

Experiment [1] deals with Cys242 in human PIK3CA (157-299) (Homo sapiens (Human), UniProt P42336). The experiment can be described thus: Covalent modification assay using MALDI-TOF MS. The class given is biochemical. The following applies: 4 h reaction time point. The method, boiled down: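 PIK3CA (157-299), 3.33 or 1 μM in 20 mM HEPES, 150 mM NaCl, 2 mM MgCl2, pH 7.3, was incubated with compound at room temperature in the dark for 15 min, 30 min, 2 h or 4 h. Linear MALDI-TOF read-out; % modification = adduct peak height over summed heights of all protein species.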
Cys242 in human PIK3CA (157-299), sequence (P42336 157-299): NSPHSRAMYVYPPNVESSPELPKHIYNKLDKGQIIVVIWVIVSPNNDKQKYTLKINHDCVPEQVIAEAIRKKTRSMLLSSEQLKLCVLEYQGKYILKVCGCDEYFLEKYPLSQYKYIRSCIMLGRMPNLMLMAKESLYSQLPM

For the next experiment, the system named is pAKT in BT474 cells. The experiment can be described thus: Cell-based pAKT HTRF assay in BT474 cells. The following applies: BT474 cells, 4 hr incubation, read-out: pAKT inhibition IC50 in BT474 cells. Put shortly:
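9-pt curve, top 3 μM, 3-fold steps, 0.25% DMSO; 4 hr compound exposure. Lysis, then HTRF with d2/Eu Cryptate antibody pair, 4–24 h RT. Ex 320 nm, Em 615 nm.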

Setting [2] is: 1 μM protein target, 1:5 protein to compound ratio (compounds 853-1279).
Where [3] appears, read: 3.33 μM protein target, 1:7.5 protein to compound ratio (compounds 1-852).

The IC50 is the concentration that inhibits the measured activity by half. Turning to `C=CC(=O)N1CCn2nc(-c3nc(-c4ccc(OCC5CN(C)C5)nc4)c4ccsc4c3-c3c(F)cc(F)cc3OCCOC)cc2C1C` (stereo not shown) [Compound 1201], the “% of modification” value in experiment [1] (setting [2]) is on record as “A (percent of modification of PIK3CA protein ≥75%)”. For the same compound, the IC50 with pAKT in BT474 cells (Compounds 1000-1279) was under 100 nM.
The matching figures for `C=CC(=O)N1CCc2nc(-c3nc(-c4ccc5nn(C)cc5c4)c4ccsc4c3-c3c(F)cc(F)cc3OCCO)sc2C1` [Compound 1053]: “A (percent of modification of PIK3CA protein ≥75%)” and under 100 nM.
As to `C=CC(=O)N1Cc2cc(-c3nc(-c4ccc5cnn(C)c5c4)c4ccsc4c3-c3c(F)cc(F)cc3OCC(C)O)nn2C(C)C1` (stereo not shown) [Compound 680], in experiment [1] (setting [3]), the “% of modification” value is listed as “A (percent of modification of PIK3CA protein ≥75%)”. In the experiment on pAKT in BT474 cells (Compounds 10-999), the IC50 was under 100 nM.
For the compound `C=CC(=O)N1CCn2nc(-c3nc(-c4ccc(C5CCCN5C)cc4)c4ccsc4c3-c3c(F)cc(F)cc3OCCOC)cc2C1C` (stereo not shown) [Compound 1224], the “% of modification” value in experiment [1] (setting [2]) is recorded as “A (percent of modification of PIK3CA protein ≥75%)”. Also, the IC50 with pAKT in BT474 cells (Compounds 1000-1279) was under 100 nM.
As for `C=CC(=O)N1Cc2cc(-c3nc(-c4cnc5c(cnn5C)c4)c4ccsc4c3-c3c(F)cc(F)cc3OCCOC)nn2C[C@H]1C` [Compound 797], the “% of modification” value in experiment [1] (setting [3]) was “A (percent of modification of PIK3CA protein ≥75%)”. Besides, the IC50 in the experiment on pAKT in BT474 cells (Compounds 10-999) is under 100 nM.
Regarding `C=CC(=O)N1CCc2nc(-c3nc(-c4ccc5c(c4)CNC5=O)c4ccsc4c3-c3c(F)cc(F)cc3OCCO)sc2C1` (single isomer, unassigned) [Compound 1033], the “% of modification” value in experiment [1] (setting [2]) is listed as “D (percent of modification <25%)”. Further, the concentration for half-maximal inhibition (IC50) in the experiment on pAKT in BT474 cells (Compounds 1000-1279) is over 1000 nM.
For `C=C(F)C(=O)N1CCn2nc(-c3nc(-c4cncc(C#N)c4)c4ccsc4c3-c3ccc(F)cc3OC(C)C)cc2C1` [Compound 303], the “% of modification” value in experiment [1] (setting [3]) was “A (percent of modification of PIK3CA protein ≥75%)”. Further, in the experiment on pAKT in BT474 cells (Compounds 10-999), the IC50 lay within 100 to 1000 nM.
`C=C(F)C(=O)N1Cc2cc(-c3nc(-c4ccc5c(c4)CCN(C)C5)c4ccsc4c3-c3c(F)cc(F)cc3OC(C)C)nn2CC1C` (single isomer, unassigned) [Compound 501]: the “% of modification” value in experiment [1] (setting [3]) was “D (percent of modification <25%)”. Further, in the experiment on pAKT in BT474 cells (Compounds 10-999), the IC50 fell in the range of 100 to 1000 nM.
On to `C=CC(=O)N1CCn2nc(-c3nc(-c4ccc([C@H](NC)C(F)(F)F)cc4)c4ccsc4c3-c3c(F)cc(F)cc3OCCOC)cc2[C@H]1C` (single isomer, unassigned) [Compound 1149], for which, in experiment [1] (setting [2]), the “% of modification” value is listed as “A (percent of modification of PIK3CA protein ≥75%)”. Besides, in the experiment on pAKT in BT474 cells (Compounds 1000-1279), the IC50 was under 100 nM.
In the case of `C=CC(=O)N1CC(n2cc(-c3nc(C4CCN(C(C)=O)CC4)c4ccsc4c3-c3ccc(F)cc3OC)cn2)C1` [Compound 297], the “% of modification” value in experiment [1] (setting [3]) was “B (50%<percent of modification <75%)”. Further, the IC50 in the experiment on pAKT in BT474 cells (Compounds 10-999) lay in the range of 1000 to 3000 nM.
For `C=CC(=O)N1CCn2nc(-c3nc(-c4ccc(CC(=O)N(C)C)cc4)c4ccsc4c3-c3c(F)cc(F)cc3OC)cc2[C@H]1C` (single isomer, unassigned) [Compound 1146], the “% of modification” value in experiment [1] (setting [2]) was “A (percent of modification of PIK3CA protein ≥75%)”. Further, in the experiment on pAKT in BT474 cells (Compounds 1000-1279), the IC50 is under 100 nM.
The matching figures for `C=CC(=O)N1CCn2nc(-c3nc(-c4cnc5c(c4)N(C)C(=O)C5)c4ccsc4c3-c3c(F)cc(F)cc3OCCOC)cc2C1C` (stereo not shown) [Compound 1058]: “A (percent of modification of PIK3CA protein ≥75%)” and under 100 nM.
On to `C=CC(=O)N1CCn2nc(-c3nc(-c4cnn(C)c4)c4ccsc4c3-c3c(F)cc(F)cc3OCCOC)cc2[C@H]1C` [Compound 584], for which the “% of modification” value in experiment [1] (setting [3]) is listed as “A (percent of modification of PIK3CA protein ≥75%)”. In addition, in the experiment on pAKT in BT474 cells (Compounds 10-999), the IC50 was under 100 nM.
As for `C=CC(=O)N1CC(n2cc(-c3nc(N4CC5(CCNCC5)C4)c4ccsc4c3-c3ccc(F)cc3OCCOC)cn2)C1` [Compound 138], in experiment [1] (setting [3]), the “% of modification” value is “A (percent of modification of PIK3CA protein ≥75%)”. Moreover, in the experiment with pAKT in BT474 cells (Compounds 10-999), the IC50 is 100 to 1000 nM.
Consider `C=CC(=O)N1CCn2nc(-c3nc(-c4ccc5c(c4)CCN(C)C5)c4ccsc4c3-c3c(F)cc(F)cc3OCCOC)cc2[C@@H]1C` [Compound 544], for which, in experiment [1] (setting [3]), the “% of modification” value is “A (percent of modification of PIK3CA protein ≥75%)”. In the experiment on pAKT in BT474 cells (Compounds 10-999), the IC50 was under 100 nM.
For the compound `C=CC(=O)N1Cc2cc(-c3nc(-c4cnnc(OCCN(C)C)c4)c4ccsc4c3-c3c(F)cc(F)cc3OCCOC)nn2C[C@H]1C` [Compound 884], the “% of modification” value in experiment [1] (setting [2]) is on record as “A (percent of modification of PIK3CA protein ≥75%)”. Besides, the IC50 in the experiment on pAKT in BT474 cells (Compounds 10-999) is under 100 nM.
Turning to `C=CC(=O)N1CCc2ncc(-c3nc(-c4cncc(C#N)c4)c4ccsc4c3-c3c(F)cc(F)cc3OCCOC)cc2C1` [Compound 376], the “% of modification” value in experiment [1] (setting [3]) is “A (percent of modification of PIK3CA protein ≥75%)”. In addition, the IC50 with pAKT in BT474 cells (Compounds 10-999) was under 100 nM.
For `C=CC(=O)N1CCn2nc(-c3nc(-c4ccc5c(c4)CNC5=O)c4ccsc4c3-c3c(F)cc(F)cc3OCCOC)cc2[C@H]1C` [Compound 520], in that order: “A (percent of modification of PIK3CA protein ≥75%)” and under 100 nM.
Take `C=CC(=O)N1Cc2cc(-c3nc(-c4ccc5c(c4)CN(C)C5=O)c4ccsc4c3-c3c(F)cc(F)cc3OCCO)nn2CC1C` (stereo not shown) [Compound 494]: the “% of modification” value in experiment [1] (setting [3]) is “A (percent of modification of PIK3CA protein ≥75%)”. The IC50 in the experiment on pAKT in BT474 cells (Compounds 10-999) was under 100 nM.
Regarding `C=CC(=O)N1CCn2nc(-c3nc(N4CCN(C(C)C)CC4)c4ccsc4c3-c3ccc(F)cc3OC(C)C)cc2C1` [Compound 208], the “% of modification” value in experiment [1] (setting [3]) is listed as “A (percent of modification of PIK3CA protein ≥75%)”. Further, the IC50 in the experiment on pAKT in BT474 cells (Compounds 10-999) was under 100 nM.
For `C=CC(=O)N1CCn2nc(-c3nc(-c4ccc5c(cnn5C)c4)c4ccsc4c3-c3c(F)cc(F)cc3OCC(C)O)cc2C1C` (stereo not shown) [Compound 767], in that order: “A (percent of modification of PIK3CA protein ≥75%)” and under 100 nM.
For `C=CC(=O)N1CCC(CO)(n2cc(-c3nc(-c4ccc5c(c4)CCNC5)c4ccsc4c3-c3ccc(F)cc3OC)cn2)CC1` [Compound 180, 1-[4-[4-[7-(4-fluoro-2-methoxy-phenyl)-4-(1,2,3,4-tetrahydroisoquinolin-6-yl)thieno[3,2-c]pyridin-6-yl]pyrazol-1-yl]-4-(hydroxymethyl)-1-piperidyl]prop-2-en-1-one], the “% of modification” value in experiment [1] (setting [3]) is given as “A (percent of modification of PIK3CA protein ≥75%)”. Further, in the experiment on pAKT in BT474 cells (Homo sapiens, BT-474, Compounds 10-999), the 50% inhibitory concentration (IC50) was 100 to 1000 nM.
As for `C=CC(=O)N1CCn2nc(-c3nc(-c4ccc5nn(C)cc5c4)c4ccsc4c3-c3c(F)cc(F)cc3OCCOC)cc2[C@H]1C` [Compound 749], the “% of modification” value in experiment [1] (setting [3]) is given as “A (percent of modification of PIK3CA protein ≥75%)”. Also, the IC50 in the experiment on pAKT in BT474 cells (Compounds 10-999) is under 100 nM.
For `C=CC(=O)N1CCc2nc(-c3nc(-c4ccc5c(c4)CCN(C(C)C)C5)c4ccsc4c3-c3ccc(F)cc3OCCOC)sc2C1` [Compound 135], in that order: “A (percent of modification of PIK3CA protein ≥75%)” and under 100 nM.
Regarding `C=CC(=O)N1CCn2nc(-c3nc(-c4ccc5c(c4)CN(C)C5=O)c4ccsc4c3-c3c(F)cc(F)cc3OC[C@@H](C)O)cc2[C@H]1C` [Compound 763], the “% of modification” value in experiment [1] (setting [3]) was “A (percent of modification of PIK3CA protein ≥75%)”. The IC50 in the experiment on pAKT in BT474 cells (Compounds 10-999) was under 100 nM.
For the compound `C=CC(=O)N1CC(n2cc(-c3nc(N4CC5CNCC5C4)c4ccsc4c3-c3ccc(F)cc3OCCOC)cn2)C1` (stereo not shown) [Compound 134], the “% of modification” value in experiment [1] (setting [3]) is reported as “B (50%<percent of modification <75%)”. Also, the IC50 with pAKT in BT474 cells (Compounds 10-999) is 1000 to 3000 nM.
